These results are taken from patent publication US7432283B2, “Heterocyclic GABAA subtype selective receptor modulators” (Roche Palo Alto LLC, priority 2004, dated 2008).

As usually defined, the melting point is the temperature of the solid-liquid transition.

Molecule `Cc1cc(C)c(N2CCCc3c2nn(C)c3C(C)(C)O)c(C)c1` [Compound 2-16, 2-[7-(2,4,6-trimethyl-phenyl)-2-methyl-4,5,6,7-tetrahydro-2H-pyrazolo[3,4-b]pyridin-3-yl]-propan-2-ol] returned a melting point of 158.9 to 161.6 °C.

For `CCCC(COC)Nc1c2c(nn1C)N(c1c(C)cc(C)cc1C)CCC2` (centres unmarked) [Compound 5-41, (1-Methoxymethylbutyl)-[2-methyl-7-(2,4,6-trimethylphenyl)-4,5,6,7-tetrahydro-2H-pyrazolo[3,4-b]pyridin-3-yl]-amine], the melting point lay within 100.1 to 104.4 °C.

`CC/C=C(\CCC)c1c2c(nn1C)N(c1c(C)cc(C)cc1Cl)CCC2` [Compound 3-1, 7-(2-Chloro-4,6-dimethylphenyl)-2-methyl-3-(1-propylbut-1-enyl)-4,5,6,7-tetrahydro-2H-pyrazolo[3,4-b]pyridine] registered a melting point of 86.7 to 88.2 °C.

`COCCC(O)(COC)c1c2c(nn1C)N(c1c(C)cc(C)cc1C)CCC2` (centres unmarked) [Compound 2-7, 1,4-Dimethoxy-2-[2-methyl-7-(2,4,6-trimethylphenyl)-4,5,6,7-tetrahydro-2H-pyrazolo[3,4-b]pyridin-3-yl]butan-2-ol]: the melting point is 107.9 to 110.9 °C.

With `CC/C=C(\CCC)c1c2c(nn1C)N(c1c(C)cc(C)cc1C)CCC2` [Compound 3-2, 2-Methyl-3-(1-propylbut-1-enyl)-7-(2,4,6-trimethylphenyl)-4,5,6,7-tetrahydro-2H-pyrazolo[3,4-b]pyridine], the melting point lay in the range of 101.6 to 102.6 °C.

`Cn1nc2c(c1-c1ccncc1)CCCN2c1ccc(Cl)cc1Cl` [Compound 9-3, 7-(2,4-Dichloro-phenyl)-2-methyl-3-pyridin-4-yl-4,5,6,7-tetrahydro-2H-pyrazolo[3,4-b]pyridine] had a melting point of 123.5 to 125.5 °C.

`Cc1cc(C)c(N2CCOc3cn(C)nc32)c(C)c1` [Compound 9-5, 2-Methyl-7-(2,4,6-trimethyl-phenyl)-2,5,6,7-tetrahydro-pyrazolo[4,3-b][1,4]oxazine] registered a melting point of 103.6 to 104.8 °C.

`CCCC(CCC)c1c2c(nn1C)N(c1c(C)cc(C)cc1C)CCCC2` [Compound 4-4, 2-Methyl-3-(1-propylbutyl)-8-(2,4,6-trimethylphenyl)-2,4,5,6,7,8-hexahydro-1,2,8-triazaazulene] had a melting point of 96 to 98.1 °C.

`CO/N=C/c1c2c(nn1C)N(c1c(C)cc(C)cc1C)CCC2` [Compound 6-5, 2-Methyl-7-(2,4,6-trimethyl-phenyl)-4,5,6,7-tetrahydro-2H-pyrazolo[3,4-b] pyridine-3-carbaldehyde O-methyl-oxime] gave a melting point of 89 to 90.1 °C.

Turning to `Cc1cc(C)c(N2CCCc3c2nn(C)c3C(O)c2ccco2)c(C)c1` (centres unmarked) [Compound 2-9, Furan-2-yl[2-methyl-7-(2,4,6-trimethyl-phenyl)-4,5,6,7-tetrahydro-2H-pyrazolo[3,4-b]pyridin-3-yl]methanol], the melting point was in the range of 163.1 to 174.4 °C.

In the case of `Cn1nc2c(c1Br)CCCN2c1ccc(Cl)cc1` [Compound 1-8, 3-Bromo-2-methyl-7-(4-chloro-phenyl)-4,5,6,7-tetrahydro-2H-pyrazolo[3,4-b]pyridine], the melting point lay within 113.8 to 114.9 °C.

As for `Cc1cc(C)c(N2CCCc3c2nn(C)c3C(=O)O)c(Cl)c1` [Compound 5-1, 7-(2-Chloro-4,6-dimethylphenyl)-2-methyl-4,5,6,7-tetrahydro-2H-pyrazolo[3,4-b]pyridine-3-carboxylic acid], the melting point is 247.8 to 248.3 °C.

Molecule `CCCC(O)(CCC)c1c2c(nn1C)N(c1ccc(Cl)cc1Cl)CCC2` [Compound 2-5, 4-[7-(2,4-Dichlorophenyl)-2-methyl-4,5,6,7-tetrahydro-2H-pyrazolo [3,4-b]pyridin-3-yl]heptan-4-ol] showed a melting point of 121.4 to 122.6 °C.

`CCCC(O)(CCC)c1c2c(nn1C)N(c1c(C)cc(C)cc1Cl)CCC2` [Compound 2-1, 4-[7-(2-Chloro-4,6-dimethylphenyl)-2-methyl-4,5,6,7-tetrahydro-2H-pyrazolo[3,4-b]pyridin-3-yl]heptan-4-ol] displayed a melting point of 129 to 130 °C.

`Cn1nc2c(c1-c1cncnc1)CCCN2c1ccc(Cl)cc1Cl` [Compound 9-2, 7-(2,4-Dichloro-phenyl)-2-methyl-3-pyrimidin-5-yl-4,5,6,7-tetrahydro-2H-pyrazolo[3,4-b]pyridine] returned a melting point of 164.2 to 166.8 °C.

`CO/N=C(\C)c1c2c(nn1C)N(c1c(C)cc(C)cc1C)CCC2` [Compound 6-4, 1-[2-Methyl-7-(2,4,6-trimethyl-phenyl)-4,5,6,7-tetrahydro-2H-pyrazolo[3,4-b]pyridin-3-yl]-ethanone O-methyl-oxime] displayed a melting point of 104.2 to 106.4 °C.

`CC(O)c1c2c(nn1C)N(c1ccc(Cl)cc1Cl)CCC2` (centres unmarked) [Compound 2-14, 1-[7-(2,4-Dichloro-phenyl)-2-methyl-4,5,6,7-tetrahydro-2H-pyrazolo[3,4-b]pyridin-3-yl]-ethanol] yielded a melting point of 56.7 to 64 °C.

`COc1cccc(OC)c1-c1c2c(nn1C)N(c1c(C)cc(C)cc1C)CCC2` [Compound 9-6, 3-(2,6-Dimethoxy-phenyl)-2-methyl-7-(2,4,6-trimethyl-phenyl)-4,5,6,7-tetrahydro-2H-pyrazolo[3,5-b]pyridine]: the melting point was 169.9 to 172.8 °C.

In turn, `Cc1cc(C)c(N2CCCc3c2nn(C)c3C2(O)CCOCC2)c(C)c1` [Compound 2-12, 4-[2-Methyl-7-(2,4,6-trimethylphenyl)-4,5,6,7-tetrahydro-2H-pyrazolo[3,4-b]pyridin-3-yl]tetrahydropyran-4-ol] gave a melting point of 193 to 195.1 °C.

The molecule `Cc1cc(C)c(N2CCCc3c2nn(C)c3-c2ccccc2C(F)(F)F)c(C)c1` [Compound 9-1, 2-Methyl-3-(2-trifluoromethyl-phenyl)-7-(2,4,6-trimethyl-phenyl)-4,5,6,7-tetrahydro-2H-pyrazolo[3,4-b]pyridine] had a melting point of 59 to 63 °C.

In turn, `CCCN(CCC)c1c2c(nn1C)N(c1c(C)cc(C)cc1C)CCC2` [Compound 5-35, [2-Methyl-7-(2,4,6-trimethylphenyl)-4,5,6,7-tetrahydro-2H-pyrazolo[3,4-b]pyridin-3-yl]-dipropylamine] showed a melting point of 88.9 to 91.5 °C.

Molecule `CCCN(CCCC#N)c1c2c(nn1C)N(c1c(C)cc(C)cc1C)CCC2` [Compound 5-48, 4-{[2-Methyl-7-(2,4,6-trimethyl-phenyl)-4,5,6,7-tetrahydro-2H-pyrazolo [3,4-b]pyridin-3-yl]-propyl-amino}-butyronitrile] yielded a melting point of 108.3 to 111 °C.

`CCCC(O)(c1cccs1)c1c2c(nn1C)N(c1c(C)cc(C)cc1C)CCC2` (centres unmarked) [Compound 2-3, 1-[2-Methyl-7-(2,4,6-trimethylphenyl)-4,5,6,7-tetrahydro-2H-pyrazolo[3,4-b]pyridin-3-yl]-1-thiophen-2-ylbutan-1-ol] returned a melting point of 175.9 to 178.4 °C.

Regarding `CCCN(CCC)c1c2c(nn1C)N(c1c(C)cc(C)cc1Cl)CCC2` [Compound 5-5, [7-(2-Chloro-4,6-dimethylphenyl)-2-methyl-4,5,6,7-tetrahydro-2H-pyrazolo[3,4-b]pyridin-3-yl]dipropylamine], the melting point is 90 to 91 °C.

Turning to `Cn1nc2c(c1N)CCCN2c1ccc(Cl)cc1Cl` [Compound 5-43, 7-(2,4-Dichloro-phenyl)-2-methyl-4,5,6,7-tetrahydro-2H-pyrazolo[3,4-b]pyridin-3-ylamine], the melting point is 176.9 to 178.9 °C.

As for `CCCC(c1cccs1)c1c2c(nn1C)N(c1c(C)cc(C)cc1C)CCC2` (centres unmarked) [Compound 4-3, 2-Methyl-3-(1-thiophen-2-ylbutyl)-7-(2,4,6-trimethylphenyl)-4,5,6,7-tetrahydro-2H-pyrazolo[3,4-b]pyridine], the melting point fell in the range of 87.6 to 90.3 °C.

Molecule `Cn1[nH]c2c(c1=O)CCCN2c1ccc(Cl)cc1Cl` [Compound 1-16, 7-(2,4-dichloro-phenyl)-2-methyl-1,2,4,5,6,7-hexahydro-pyrazolo[3,4-b]pyridin-3-one] yielded a melting point of 98 to 100.5 °C.

With `COc1ccc(N2CCCc3c2nn(C)c3Br)c(C)c1` [Compound 1-7, 3-Bromo-2-methyl-7-(4-methoxy 2-methyl-phenyl)-4,5,6,7-tetrahydro-2H-pyrazolo[3,4-b]pyridine], the melting point was 101.7 to 104.1 °C.

Molecule `CCC(=O)Nc1c2c(nn1C)N(c1c(C)cc(C)cc1C)CCC2` [Compound 7-3, N-[2-Methyl-7-(2,4,6-trimethylphenyl)-4,5,6,7-tetrahydro-2H-pyrazolo[3,4-b]pyridin-3-yl]propionamide] came in with a melting point of 226 to 228 °C.

As to `Cn1nc2c(c1Cl)CCCN2c1ccc(Cl)cc1` [Compound 1-10, 3-chloro-7-(4-chloro-phenyl)-2-methyl-4,5,6,7-tetrahydro-2H-pyrazolo [3,4-b]pyridine], the melting point lay within 96.5 to 97.5 °C.

Regarding `CCc1c2c(nn1C)N(c1c(C)cc(C)cc1C)CCC2` [Compound 4-5, 3-Ethyl-2-methyl-7-(2,4,6-trimethyl-phenyl)-4,5,6,7-tetrahydro-2H-pyrazolo[3,4-b]pyridine], the melting point was 79.7 to 81.4 °C.

The molecule `Cc1cc(C)c(N2CCCc3c2nn(C)c3NC(=O)OC(C)(C)C)c(Cl)c1` [Compound 5-3, [7-(2-Chloro-4,6-dimethylphenyl)-2-methyl-4,5,6,7-tetrahydro-2H-pyrazolo[3,4-b]pyridin-3-yl]carbamic acid tert-butyl ester] gave a melting point of 171.4 to 175.7 °C.

Turning to `Cc1cc(C)c(N2CCCc3c2nn(C)c3Cl)c(C)c1` [Compound 1-11, 3-chloro-7-(2,4,6-trimethyl-phenyl)-2-methyl-4,5,6,7-tetrahydro-2H-pyrazolo[3,4-b]pyridine], the melting point fell in the range of 83 to 86 °C.

In turn, `Cc1cc(C)c(N2C(=O)CCc3c2nn(C)c3Br)c(C)c1` [Compound 9-4, 3-Bromo-2-methyl-7-(2,4,6-trimethyl-phenyl)-2,4,5,7-tetrahydro-pyrazolo[3,4-b]pyridin-6-one] yielded a melting point of 256.8 to 258 °C.

As for `Cn1nc2c(c1Br)CCCN2c1c(Cl)cc(Cl)cc1Cl` [Compound 1-6, 3-Bromo-2-methyl-7-(2,4,6-trichloro-phenyl)-4,5,6,7-tetrahydro-2H-pyrazolo[3,4-b]pyridine], the melting point fell in the range of 100 to 101 °C.
